Assay results from patent publication US20090186088A1, “INHALABLE DRUG” (NanoMaterials Technology Pte Ltd, priority 2005, published 2009).

What was measured:
[1] = type: physicochemical
Text: The aim of this experiment was to achieve a suspension containing fine Salbutamol sulfate precipitate. […] Alcohol (ethanol) therefore was considered to be the best choice, considering the safety of the possible solvents. The solubility of a solid is a function of the solid particle size according to Equation 1
where R is the gas constant, T the absolute temperature, S and Sr the solubility of large solid particles and of particles having small radius r respectively, and M, σ, and d are the molecular weight, surface tension, and density of the solid respectively. It will be appreciated from Eq. 1 that the solubility of a solid will increase as the particle size decreases. […] Consequently, when one considers the yield of the process, alcohol no longer appears suitable. […] Further, IPA is a commonly used organic solvent.

[2] = Dispersion experiments in multi-stage liquid impinger (MSLI), fine particle fraction; type: physicochemical; conditions: beaker-synthesised powder, 60 L/min, 4 seconds
Text: The measurement of particle sizes in vitro allows a simplistic estimation of the aerodynamic particle size distribution. This process utilizes cascade or impactor devices such as the multi-stage liquid impinger (MSLI) (FIG. 7) to provide a breakdown of the particle size distribution through separation and collection of powder of different Da.
The MSLI consists of 5 stages which have been calibrated at 60 L/min to collect powder of a certain Da, known as the cut-off Da:
At flow rates of 60-100 L/min, the particles which have a Da of less than 5 μm are expected to be able to surpass oropharangeal deposition and the filter of the MSLI from equation 3. From the results of the MSLI, the FPF (fine particle fraction) can be calculated, and expressed as two different forms: […]
The recovery was also calculated for each dispersion which represents the mass of powder which was accounted for compared with the mass which was loaded into the capsules (Equation 6).
The equipment used to perform the dispersion experiments was the MSLI, which has been described earlier. […] The supernatant was then collected. • Step 11: All rinsings were collected into separately labeled glass vials and analyzed by UV immediately to minimize the effect of evaporation, which would produce an overestimation of the concentration collected.

[3] = British Pharmacopoeia; cited from earlier work

Molecule | solubility in IPA [1] | reduction in FPF(emitted), Rotahaler vs Aeroliser [2] | reduction in FPF(total), Rotahaler vs Aeroliser [2] | solubility in alcohol [3] | solubility in ether [3] | solubility in methylene chloride [3] | solubility in water [3]
Salbutamol sulfate | somewhat lower than in alcohol | ~30% | ~20% | slightly soluble | slightly soluble | very slightly soluble | freely soluble
CC(C)(C)NCC(O)c1ccc(O)c(CO)c1 (stereo not shown) [Salbutamol base] |  |  |  | soluble | slightly soluble |  | sparingly soluble
